In ChEMBL document CHEMBL3751730, “Synthesis and in vitro antitumor evaluation of dihydroartemisinin-cinnamic acid ester derivatives” (Eur J Med Chem, 2016):
The source made the active and inactive calls. The calls are words filed in the database; no cut-off is given here.

Tests used:
[1] = Antiproliferative activity against human MDA-MB-435S cells after 72 hrs by MTT assay; format: functional, cell-based
A549 [2] = experiment: Antiproliferative activity against human A549 cells after 72 hrs by MTT assay; format: functional, cell-based; conditions: A549, 72 h
[3] = Chemical stability of the compound at 2 to 4 mg at 25 to 300 degC by differential scanning […] analysis in the presence of nitrogen gas; format: physicochemical
[4] = Antiproliferative activity against human SGC7901 cells after 72 hrs by MTT assay; format: functional, cell-based; conditions: SGC-7901, 72 h
[5] = Antiproliferative activity against human PC3 cells after 72 hrs by MTT assay; format: functional, cell-based; conditions: PC-3, 72 h
[6] = Drug degradation at 2 to 4 mg at 210 to 220 degC by thermogravimetric analysis in the presence of nitrogen gas; format: physicochemical; conditions: in vivo; read-out: Drug degradation
[7] = Cytotoxicity against human L02 cells after 72 hrs by MTT assay; format: cell-based; conditions: L02, 72 h
[8] = Selectivity index, ratio of IC50 for human L02 cells to IC50 for human A549 cells; format: functional
A549 [9] = experiment: Antiproliferative activity against human A549 cells at 0.20 uM after 72 hrs by MTT assay; format: functional, cell-based
A549 [10] = experiment: Antiproliferative activity against human A549 cells at 0.20 uM after 72 hrs by MTT assay in presence of 0.40 uM 3,4-dimethoxycinnamic acid; format: functional, cell-based
A549 [11] = experiment: Induction of apoptosis in human A549 cells assessed as early apoptotic cells at 3 uM after 48 hrs by Annexin V-FITC/propidium iodide staining based flow cytrometric analysis (reference value: 0.63%); format: functional
A549 [12] = experiment: Induction of apoptosis in human A549 cells assessed as nuclei blebbing at 10 uM after 48 hrs by Hoechst 33258 staining based fluorescence microscopic analysis; format: functional, cell-based
A549 [13] = experiment: Induction of apoptosis in human A549 cells assessed as early apoptotic cells at 10 uM after 48 hrs by Annexin V-FITC/propidium iodide staining based flow cytrometric analysis (reference value: 0.63%); format: functional
[14] = Induction of apoptosis in human L02 cells assessed as reactive oxygen species formation at 30 uM after 48 hrs by DCFH-DA staining based fluorescence microscopic analysis; format: cell-based; conditions: l02, 48 h
A549 [15] = experiment: Induction of apoptosis in human A549 cells assessed as cell shrinkage at 30 uM after 48 hrs by Hoechst 33258 staining based fluorescence microscopic analysis; format: functional
[16] = Induction of apoptosis in human L02 cells assessed as reactive oxygen species formation at 30 uM measured for 20 hrs by DCFH-DA staining based FLIPR assay; format: cell-based; conditions: l02, 20 h
[17] = Induction of apoptosis in human L02 cells assessed as reactive oxygen species formation at 10 uM after 48 hrs by DCFH-DA staining based fluorescence microscopic analysis; format: cell-based; conditions: l02, 48 h
A549 [18] = experiment: Induction of apoptosis in human A549 cells after 48 hrs by Annexin V-FITC/propidium iodide staining based flow cytometric analysis; format: functional, cell-based
A549 [19] = experiment: Induction of apoptosis in human A549 cells assessed as early apoptotic cells at 30 uM after 48 hrs by Annexin V/propidium iodide staining based flow cytometric analysis in the absence of 3 uM DFO (reference value: 0.63%); format: functional
A549 [20] = experiment: Induction of reactive oxygen species generation in human A549 cells at 30 uM measured for 20 hrs by DCFH-DA staining based fluorescence assay in presence of 3 uM DFO; format: functional, cell-based
A549 [21] = experiment: Induction of apoptosis in human A549 cells assessed as reactive oxygen species formation at 30 uM by DCFH-DA staining based FLIPR assay; format: functional, cell-based; conditions: TDE = time-dependent effect
A549 [22] = experiment: Induction of apoptosis in human A549 cells assessed as cell shrinkage at 3 uM after 48 hrs by Hoechst 33258 staining based fluorescence microscopic analysis; format: functional
A549 [23] = experiment: Induction of apoptosis in human A549 cells assessed as early apoptotic cells at 30 uM after 48 hrs by Annexin V/propidium iodide staining based flow cytrometric analysis in presence of 5 mM NAC (reference value: 0.63%); format: functional
A549 [24] = experiment: Induction of apoptosis in human A549 cells assessed as nuclear rounding at 30 uM after 48 hrs by Hoechst 33258 staining based fluorescence microscopic analysis; format: functional, cell-based
A549 [25] = experiment: Induction of apoptosis in human A549 cells assessed as cell viability at 3 to 30 uM after 48 hrs by MTT assay in presence of 5 mM NAC; format: functional, cell-based
A549 [26] = experiment: Induction of apoptosis in human A549 cells assessed as reactive oxygen species formation after 48 hrs by DCFH-DA staining based fluorescence microscopic analysis; format: functional, cell-based
A549 [27] = experiment: Induction of apoptosis in human A549 cells assessed as early apoptotic cells at 30 uM after 48 hrs by Annexin V/propidium iodide staining based flow cytometric analysis in presence of 3 uM DFO (reference value: 0.63%); format: functional
A549 [28] = experiment: Induction of apoptosis in human A549 cells assessed as early apoptotic cells at 30 uM after 48 hrs by Annexin V/propidium iodide staining based flow cytrometric analysis in absence of 5 mM NAC (reference value: 0.63%); format: functional
A549 [29] = experiment: Induction of apoptosis in human A549 cells assessed as nuclei blebbing at 3 uM after 48 hrs by Hoechst 33258 staining based fluorescence microscopic analysis; format: functional, cell-based
A549 [30] = experiment: Cytotoxicity against human A549 cells assessed as cell viability at 3 to 30 uM after 48 hrs by MTT assay in presence of 3 uM DFO; format: functional, cell-based
A549 [31] = experiment: Induction of apoptosis in human A549 cells assessed as cell shrinkage at 10 uM after 48 hrs by Hoechst 33258 staining based fluorescence microscopic analysis; format: functional
A549 [32] = experiment: Induction of apoptosis in human A549 cells assessed as nuclear rounding at 10 uM after 48 hrs by Hoechst 33258 staining based fluorescence microscopic analysis; format: functional, cell-based
A549 [33] = experiment: Induction of apoptosis in human A549 cells assessed as nuclear rounding at 3 uM after 48 hrs by Hoechst 33258 staining based fluorescence microscopic analysis; format: functional, cell-based
A549 [34] = experiment: Induction of apoptosis in human A549 cells assessed as nuclei blebbing at 30 uM after 48 hrs by Hoechst 33258 staining based fluorescence microscopic analysis; format: functional, cell-based
A549 [35] = experiment: Induction of apoptosis in human A549 cells assessed as early apoptotic cells at 30 uM after 48 hrs by Annexin V-FITC/propidium iodide staining based flow cytrometric analysis (reference value: 0.63%); format: functional
A549 [36] = experiment: Antiproliferative activity against human A549 cells at 0.40 uM after 72 hrs by MTT assay; format: functional, cell-based
A549 [37] = experiment: Antiproliferative activity against human A549 cells at 0.40 uM after 72 hrs by MTT assay in presence of 0.20 uM 9alpha-DHA; format: functional, cell-based

In the case of `COc1cc(/C=C/C(=O)O[C@@H]2O[C@@H]3O[C@@]4(C)CC[C@H]5[C@H](C)[C@H](OC(=O)/C=C/c6cc(OC)c(OC)c(OC)c6)C[C@@H]([C@H]2C)[C@@]35OO4)cc(OC)c1OC`, the IC50 [1] is reported as 5.33 µM, the IC50 (A549 [2]) is reported as 0.5 µM and the Stability [3] is reported as “Stable”. The IC50 [4] was 11.8 µM, the IC50 [5] was 17.2 µM and the degraded [6] was 1%. For the same compound, the IC50 [7] was 58.6 µM and the “Ratio IC50” value [8] was 117.3.
In the case of `C[C@@H]1[C@H](O)C[C@H]2[C@@H](C)[C@@H](O)O[C@@H]3O[C@@]4(C)CC[C@@H]1[C@]32OO4`, the IC50 [1] is reported as 57.8 µM, the IC50 (A549 [2]) is reported as > 100 µM and the Activity (A549 [9]) is reported as “inactive”. For the same compound, the IC50 [4] was > 100 µM, the IC50 [5] was > 100 µM and the Activity (A549 [10]) was “inactive”.
With `COc1ccc(/C=C/C(=O)O[C@@H]2O[C@@H]3O[C@@]4(C)CC[C@H]5[C@H](C)[C@H](OC(=O)/C=C/c6ccc(OC)c(OC)c6)C[C@@H]([C@H]2C)[C@@]35OO4)cc1OC` the Activity (A549 [11]) was 4.33%, the Activity (A549 [12]) was “Active” and the Activity (A549 [13]) was 14.01%. The IC50 [1] was 6.23 µM, the Activity [14] was “Non-toxic” and the IC50 (A549 [2]) was 0.2 µM. The Activity (A549 [9]) was “Active”, the Activity (A549 [15]) was “Active” and the Activity [16] was “Non-toxic”. The Activity [17] was “Non-toxic”, the IC50 [4] was 4.94 µM and the IC50 [5] was 22.7 µM. For the same compound, the Activity (A549 [18]) was “Dose-dependent effect”, the Activity (A549 [19]) was 16.88% and the Activity (A549 [20]) was “inactive”. The Activity (A549 [21]) was “tde”, the Activity (A549 [22]) was “Active” and the Activity (A549 [23]) was 4.71%. The Activity (A549 [24]) was “Active”, the Activity (A549 [25]) was “inactive” and the IC50 [7] was 80.2 µM. For the same compound, the Activity (A549 [26]) was “Dose-dependent effect”, the Activity (A549 [27]) was 2.17% and the Activity (A549 [28]) was 16.88%. The “Ratio IC50” value [8] was 401.25, the Activity (A549 [29]) was “Active” and the Activity (A549 [30]) was “inactive”. The Activity (A549 [31]) was “Active”, the Activity (A549 [32]) was “Active” and the Activity (A549 [33]) was “Active”. For the same compound, the Activity (A549 [34]) was “Active” and the Activity (A549 [35]) was 16.88%.
For `COc1ccc(/C=C/C(=O)O)cc1OC`, the Activity (A549 [36]) was “inactive” and the Activity (A549 [37]) was “inactive”.
